# What was measured:
# [1] = system: individuals with Marfan syndrome; details: cited from earlier work
# [2] = system: patients with Marfan syndrome; details: male less than 16 years old, female less than 15; losartan p=0.002, atenolol p<0.001; cited from earlier work
# FBN1 mgR/mgR mice = assay: Survival and ascending aortic diameter in FBN1 mgR/mgR mice with established aortic dilation infused with enalapril or losartan by osmotic mini pump; assay type: in vivo; details: for survival after 12 weeks versus PBS: mini pump from 6 weeks of age
# Procedure: Male and female fibrillin-1 hypomorphic (FBN1 mgR/mgR) mice (n=10-12/group) were stratified into treatment groups by aortic diameter at 6 weeks of age to ensure an equivalent average aortic diameter in each group at the start of the study. Osmotic mini pumps filled with PBS (vehicle), enalapril (2 mg/kg/d), or losartan (20 mg/kg/d) were implanted subcutaneously into mice after stratification. Mini pumps infusing drug or vehicle were replaced every 4 weeks for a total duration of 12 weeks. Wild type littermates (n=10) were infused with PBS as a negative control to the Marfan mouse model. Ascending aortic diameters from male and female FBN1 mgR/mgR mice and their wild type littermates were assessed by ultrasound every 4 weeks from 6 to 18 weeks of age. Aortic diameters were measured luminal edge to luminal edge during diastole.
# Fbn1^mgR/mgR mice = assay: Survival of Fbn1^mgR/mgR mice given losartan in drinking water starting at P24 or P50; assay type: in vivo; details: for survival compared to Fbn1^mgR/mgR mice receiving no drug, survival analysis starting at P50: p=0.017
# From the text: Male (n=40) and female (n=28) Fbn1^mgR/mgR mice were randomized to receive losartan in drinking water (0.6 g/L) starting at either postnatal day 24 (P24) or 50 (P50). Data derived from these mice was compared to littermate Fbn1^mgR/mgR (20 males, 14 females) and wild type (15 males, 15 females) mice that were given vehicle only. All mice were terminated at 20 weeks of age. Mice that died during the study were necropsied to determine cause of death.
# [3] = system: male FBN1^mgR/mgR (mgR) mice; assay: Losartan withdrawal in male FBN1^mgR/mgR mice, death by aortic rupture; assay type: in vivo
# From the text: Withdrawal of losartan during late adolescence (52 days of age) was followed by 6/10 mice dying by aortic rupture within 4 weeks (shaded area). (*=p<0.05. Censored data include humane endpoints and non-rupture events.)
# [4] = system: patients with Marfan syndrome; details: median follow-up 8 years; control group 5; p=0.14; cited from earlier work
# mouse models of TAA = details: cited from earlier work
# [5] = female mgR mice, PBS=1.92+/-0.13, p=0.86, no significant difference
# [6] = male mgR mice, PBS=2.69+/-0.19 mm, p=0.24, no significant difference
compound,measurement,setting,value
CCCCC1=NC2(CCCC2)C(=O)N1Cc1ccc(-c2ccccc2-c2nnn[nH]2)cc1 [irbesartan],aortic root expansion,[1],significantly attenuated
CC(C)NCC(O)COc1ccc(CC(N)=O)cc1 (stereo not drawn) [atenolol],change in aortic-root z scores over time with younger age of initiation,[2],greater decrease
CCOC(=O)[C@H](CCc1ccccc1)N[C@@H](C)C(=O)N1CCC[C@H]1C(=O)O [enalapril],survival after 12 weeks versus PBS,"FBN1 mgR/mgR mice; female mgR mice, p=0.094",no significant difference
same,maximum ascending aortic diameter after treatment for 12 weeks,FBN1 mgR/mgR mice; [5],1.89+/−0.31
same,survival after 12 weeks versus PBS,"FBN1 mgR/mgR mice; male mgR mice, p=0.224",no significant difference
same,maximum ascending aortic diameter after treatment for 12 weeks,FBN1 mgR/mgR mice; [6],2.04+/−0.27 mm
CCCCc1nc(Cl)c(CO)n1Cc1ccc(-c2ccccc2-c2nn[nH]n2)cc1 [losartan],survival benefit in female mice,"Fbn1^mgR/mgR mice; female Fbn1^mgR/mgR mice, survival not different from wild type females",not possible to detect a survival benefit
same,survival compared to Fbn1^mgR/mgR males receiving no drug,"Fbn1^mgR/mgR mice; males, losartan 0.6 g/L drinking water from P24, p<0.001, log-rank",increased
same,survival compared to wild type male mice,"Fbn1^mgR/mgR mice; males, losartan from P24, p=0.138",not different
same,survival compared to wild type mice,"Fbn1^mgR/mgR mice; males, losartan from P50, p=0.002",decreased
same,"survival compared to Fbn1^mgR/mgR mice receiving no drug, survival analysis starting at P50","Fbn1^mgR/mgR mice; males, losartan from P50",increased survival
same,"survival compared to Fbn1^mgR/mgR mice receiving no drug, survival analysis starting at P50","Fbn1^mgR/mgR mice; males, losartan from P50, listed as Losartan",improves survival
same,survival compared to Fbn1^mgR/mgR males receiving no drug,"Fbn1^mgR/mgR mice; males, losartan from P50, p=0.194",not different
same,efficacy when administered after significant thoracic aortic dilation has already occurred,FBN1 mgR/mgR mice; FBN1^mgR/mgR mice,not effective
same,survival after 12 weeks versus PBS,"FBN1 mgR/mgR mice; female mgR mice, p=0.094",no significant difference
same,maximum ascending aortic diameter after treatment for 12 weeks,FBN1 mgR/mgR mice; [5],1.98+/−0.17
same,survival after 12 weeks versus PBS,"FBN1 mgR/mgR mice; male mgR mice, p=0.224",no significant difference
same,maximum ascending aortic diameter after treatment for 12 weeks,FBN1 mgR/mgR mice; [6],2.42+/−0.28 mm
same,mortality due to aortic rupture compared to mgR controls,"[3]; male mgR mice, losartan in drinking water from 24 days of age, p<0.05",protected from mortality
same,mice dying by aortic rupture within 4 weeks of losartan withdrawal,[3]; withdrawal at 52 days of age,6/10
same,change in aortic-root z scores over time with younger age of initiation,[2],greater decrease
same,number of deaths,[4],0
same,aortic root expansion in Fbn1^C1041G/+ mice,mouse models of TAA; literature ref 9,decrease aortic root expansion
same,aortic expansion in other mouse models of TAA,mouse models of TAA; literature refs 6-11,reduces aortic expansion
